Holding throughout (format): functional
Experiment [1] relates to Mus musculus. The experiment is described as follows: Analgesic activity was determined by Mouse phenylbenzoquinone writhing test(PBQ) at a dose of 56 mg/kg subcutaneous administration. Conditions: sc. A general note: Writhing tests count abdominal constrictions after an irritant is injected.
The subject of experiment [2] is Mus musculus. In words: Analgesic activity was determined by mouse phenylbenzoquinone writhing test(PBQ) at a dose 56 mg/kg subcutaneous administration. Conditions: sc.
Experiment [3] deals with Mus musculus. The experiment is described as follows: Analgesic activity was determined by Mouse phenylbenzoquinone writhing test(PBQ) at a dose of 100 mg/kg subcutaneous administration. Conditions: sc.
Experiment [4] has as its system Mus musculus. In words: Analgesic activity was determined by Mouse phenylbenzoquinone writhing test(PBQ) at a dose of 10 mg/kg subcutaneous administration. The settings on record: sc.
Experiment [5] relates to Mus musculus. The experiment is described as follows: Analgesic activity was determined by Mouse phenylbenzoquinone writhing test(PBQ) at a dose of 32 mg/kg subcutaneous administration. The settings on record: sc.
The species entered for experiment [6] is Rattus norvegicus. The experiment is described as follows: Analgesic activity was determined by rat flinch jump (FJ), 2 hour postdose.
Experiment [7] is filed under the species Rattus norvegicus. The experiment is described as follows: Analgesic activity was determined by rat tail clamp assay(RTC), 2 hour postdose.
The species named for experiment [8] is Mus musculus. In words: Analgesic activity was determined by mouse phenylbenzoquinone (PBQ) induced writhing, 1 hour postdose.
The species entered for experiment [9] is Mus musculus. In words: Analgesic activity was determined by mouse hot plate (HP), 1 hour postdose.
For experiment [10], the species on record is Mus musculus. In words: Analgesic activity was determined by mouse tail flick (TF), 1 hour postdose.

Data on eight compounds can be found in ChEMBL document CHEMBL1122598, “A cannabinoid derived prototypical analgesic” (1984).

Each structure is given as a SMILES string.

As for `CCCCCCC(C)(C)c1ccc(C(C)CC(C)O)c(O)c1` (stereo unspecified), the inhibition in vivo (commonly the share of the control response that was lost under treatment) at 56 mg/kg in experiment [1] is 50%; in [2] it was 55%. Further, the inhibition in vivo at 100 mg/kg in experiment [3] was 53%. The compound also displayed an inhibition in vivo at 10 mg/kg in experiment [4] of 27%. In addition, the inhibition in vivo at 32 mg/kg in experiment [5] was determined as 52%.
On to `CCCCCCC(C)(C)c1ccc([C@H]2CCC[C@H](O)C2)c(O)c1`, for which the MPE50 in [6] was 17.8 mg/kg; in experiment [7], 12.3 mg/kg; in experiment [8] it was 3.8 mg/kg; in experiment [9] it was greater than 56 mg/kg; in [10], 55.7 mg/kg.
Regarding `CCCCCCC(C)(C)c1ccc([C@H]2CCCC(=O)C2)c(O)c1`, the MPE50 in experiment [6] is 11.5 mg/kg; in experiment [7], 26.1 mg/kg; in [8], 4.5 mg/kg; in experiment [9], greater than 32 mg/kg; in [10], 15.3 mg/kg.
In the case of `CCCCCCC(C)(C)c1ccc([C@H]2CCC[C@@H](O)C2)c(O)c1`, the MPE50 stood at 4.9 mg/kg in experiment [6]; 4.7 mg/kg in experiment [7]; 1 mg/kg in [8]; 8.1 mg/kg in [9]; 4.4 mg/kg in [10].
In experiment [2], `CCCCCCC(C)(C)c1ccc(C(C)CC(C)=O)c(O)c1` (stereo unspecified) gave an inhibition in vivo at 56 mg/kg of 0%.
On to `CCCCCc1cc(O)c2c(c1)OC(C)(C)[C@@H]1CC[C@@H](O)C[C@@H]21`, for which the MPE50 turned out to be 36.4 mg/kg in experiment [6]; 7 mg/kg in experiment [7]; 0.63 mg/kg in [8]; 34.4 mg/kg in [9]; 9.1 mg/kg in experiment [10].
With `CCCCCc1cc(O)c2c(c1)OC(C)(C)[C@@H]1CCC(C)=C[C@@H]21` [DRONABINOL], the MPE50 is 83.1 mg/kg in experiment [6]; 29.1 mg/kg in experiment [7]; 5.9 mg/kg in experiment [8]; greater than 178 mg/kg in experiment [9]; 55 mg/kg in experiment [10].
On to `CN1CC[C@]23c4c5ccc(O)c4O[C@H]2[C@@H](O)C=C[C@H]3[C@H]1C5` [MORPHINE], for which the MPE50 in experiment [6] stood at 10.3 mg/kg; in experiment [7] it was 4.8 mg/kg; in experiment [8] it was 1.8 mg/kg; in experiment [9], 4.2 mg/kg; in experiment [10], 5.7 mg/kg.
